Assay results published in ChEMBL document CHEMBL1142830, “QSAR studies on structurally similar 2-(4-methanesulfonylphenyl)pyran-4-ones as selective COX-2 inhibitors: a Hansch approach” (Bioorg Med Chem Lett, 2005).

The compounds below were run against T1, Prostaglandin G/H synthase 2 (Homo sapiens, UniProt P35354) (assay: Inhibitory concentration for Cyclooxygenase-2 (Prostaglandin G/H synthase 2) in human whole blood).
T1 sequence (P35354 whole entry): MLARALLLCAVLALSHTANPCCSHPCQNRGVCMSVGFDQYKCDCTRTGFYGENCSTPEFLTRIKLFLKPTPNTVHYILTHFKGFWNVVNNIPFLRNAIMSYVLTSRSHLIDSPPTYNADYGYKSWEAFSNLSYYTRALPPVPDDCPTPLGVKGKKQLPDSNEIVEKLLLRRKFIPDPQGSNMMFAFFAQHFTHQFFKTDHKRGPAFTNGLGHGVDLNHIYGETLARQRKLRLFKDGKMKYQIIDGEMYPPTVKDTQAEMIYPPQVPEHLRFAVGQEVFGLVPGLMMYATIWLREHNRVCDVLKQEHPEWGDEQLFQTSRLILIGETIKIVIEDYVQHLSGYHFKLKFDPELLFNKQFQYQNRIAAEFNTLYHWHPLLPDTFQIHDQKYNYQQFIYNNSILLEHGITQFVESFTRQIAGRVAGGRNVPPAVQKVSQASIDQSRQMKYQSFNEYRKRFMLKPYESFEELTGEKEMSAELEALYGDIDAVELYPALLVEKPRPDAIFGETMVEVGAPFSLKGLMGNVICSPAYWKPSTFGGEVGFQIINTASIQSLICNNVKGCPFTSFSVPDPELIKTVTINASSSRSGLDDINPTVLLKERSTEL
Format: tissue-based

Row | IC50 [µM] | Compound
1 | 3.38 | Cc1cc(=O)c(Oc2ccc(Cl)cc2Cl)c(-c2ccc(S(C)(=O)=O)cc2)o1
2 | 87.9 | CS(=O)(=O)c1ccc(-c2occ(Cl)c(=O)c2-c2ccc(-c3ccccc3)c(F)c2)cc1
3 | 2.45 | Cc1cc(=O)c(Oc2ccc(OC(F)(F)F)cc2)c(-c2ccc(S(C)(=O)=O)cc2)o1
